Here are results for four molecules from patent publication US20070224128A1, “Drug adherence monitoring system” (priority 2006, published 2007).

The conditions of data set [1]: cited from earlier work.
The conditions of data set [2]: water at 25° C.; cited from earlier work.
Data set [3] relates to rat. The note with it: 4H; cited from earlier work.
Data set [4] relates to rat. The settings on record: cited from earlier work.
Data set [5] deals with human recombinant CYP2D6 (Homo sapiens, UniProt P10635). Here is the method: CYP 2D6 inhibition assays were performed by Novascreen (Hanover, Md.). In brief, after 100 μL solution containing the compounds (dextromethorphan or trifluoroethyldextrorphan, concentration ranging from 10^−10 M to 10^−5M) and mixed 50 μL cofactor solution were preincubated in 100 mM potassium phosphate buffer (pH=7.4) for 10 min at 37° C., 50 μL of freshly mixed solution of human recombinant CYP2D6 (1.5 pmole) and AMMC (1.5 μM) was added to each well. The final cofactor concentrations were 1.3 mM NADP^+, 3.3 mM glucose-6-phosphate, 0.4 U/ml glucose-6-phosphate dehydrogenase. Samples were incubated for 45 minutes and the reaction was stopped with 75 μL Tris/acetonitrile stop solution. Quinidine was used as the reference compound. The AMMC metabolite, AMHC, was measured using a fluorescent plate scanner at an excitation wavelength of 390 nm and emission wavelength of 460 nm.
human recombinant CYP2D6, sequence (P10635 whole entry): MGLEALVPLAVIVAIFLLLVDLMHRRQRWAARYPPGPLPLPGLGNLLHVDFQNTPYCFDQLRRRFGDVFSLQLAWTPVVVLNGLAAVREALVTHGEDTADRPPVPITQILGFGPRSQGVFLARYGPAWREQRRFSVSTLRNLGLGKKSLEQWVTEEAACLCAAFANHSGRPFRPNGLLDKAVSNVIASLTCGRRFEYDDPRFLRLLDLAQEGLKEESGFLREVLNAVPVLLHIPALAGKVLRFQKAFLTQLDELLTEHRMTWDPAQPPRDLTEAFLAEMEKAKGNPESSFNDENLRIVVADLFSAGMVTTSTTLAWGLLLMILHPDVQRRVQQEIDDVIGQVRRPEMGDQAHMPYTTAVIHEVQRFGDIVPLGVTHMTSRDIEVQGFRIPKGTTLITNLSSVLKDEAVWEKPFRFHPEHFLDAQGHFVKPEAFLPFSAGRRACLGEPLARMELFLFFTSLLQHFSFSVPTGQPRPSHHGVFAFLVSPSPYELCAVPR

Data set [6] deals with human liver microsomes. In words: Human liver microsomes assay: trifluoroacetaldehyde captured from headspace, GC/MS. The note with it: 2 mg/mL human liver microsome, 1 mM trifluoroethyldextrorphan, 1.5 hours, determined as DNPH derivative.
Method: Microsomal incubations were conducted in 1.5 mL polypropylene vials containing 2 mg/mL human liver microsome, 5.2 mM NADP^+, 13.2 mM glucose-6-phosphate, 1.6 U/ml glucose-6-phosphate dehydrogenase, 6.6 mM magnesium chloride and 1 mM trifluoroethyldextrorphan in 100 mM potassium phosphate buffer (pH 7.5). The total volume was 1.5 mL.
LpDNPH S10 cartridges were employed to collect trifluoroacetaldehyde produced from incubation mixture for 1.5 hours through suction generated by a 5 mL syringe. The incubations were performed in triplicate. […]
A Thermo Finnigan Polaris Q Mass Spectrometer (MS) system (consists of a Polaris Q MS, a TRACE GC, and the Xcalibur Data System) was used. […] Negative chemical ionization (NCI) mode was used for identification and quantitation of trifluoroacetaldehyde 2,4-dinitrophenylhydrazone. […]
[^15N4]trifluoroacetaldehyde 2,4-dinitrophenylhydrazone was used as an internal standard for the determination of trifluoroacetaldehyde as its DNPH derivative. Quantitation was performed by selected ion monitoring (SIM) of most intensive fragment ions trifluoroacetaldehyde 2,4-dinitrophenylhydrazone (m/z 182) against the internal standard [^15N4]trifluoroacetaldehyde 2,4-dinitrophenylhydrazone (m/z 185). […]
The fragment ions m/z 182 and 185 were monitored for quantitation. […]

Converted amounts (≈) assume the structure as drawn. Structures can show the parent of a compound that is named as a salt. Where two headings read alike, the source gives them in different places.

Consider `OC(C(F)(F)F)(C(F)(F)F)C(F)(F)F` [R′3], for which the VP in data set [1] (at 20° C.) is 268 torr. The Solubility in data set [2] is given as 39,200 mg/L.
Regarding `OC(C(F)(F)F)C(F)(F)F` [R′4], the VP in data set [1] (at 20° C.) is recorded as 102 torr; in data set [1] (at 25° C.), 159 torr. In addition, the Solubility in data set [2] is 7770 mg/L (≈ 46.2 mM). Further, the “LC50 Inhalation rat” value in data set [3] was 1974 ppm/4H. Moreover, the “LD50 Oral rat” value in data set [4] was 1040 to 1500 mg/kg.
Take `COc1ccc2c(c1)[C@]13CCCC[C@@H]1[C@H](C2)N(C)CC3` [dextromethorphan, Dextromethorphan hydrobromide, reference compound]: the “potency to inhibit AMMC metabolism” value in data set [5] is reported as “similar”.
Turning to `CN1CC[C@@]23CCCC[C@@H]2[C@@H]1Cc1ccc(OCC(F)(F)F)cc13` [trifluoroethyldextrorphan, O-trifluoroethyldextrorphan], in data set [5] (human recombinant CYP2D6 1.5 pmole, AMMC 1.5 μM, compounds 10^−10 M to 10^−5 M, 45 minutes, FIG. 5), the “potency to inhibit AMMC metabolism” value was “similar”. For the same molecule, the “trifluoroacetaldehyde captured from the headspace of the microsomal incubation mixture” value in data set [6] came to 120 ng.
